# Measurements reported in patent publication US20220023257A1, “TREATMENT OF DEMENTIA-ASSOCIATED TAUOPATHIES” (Medizinische Hochschule Hannover (MHH), priority 2018, published 2022).
# Legend:
# 5-HT7R = biological target: T1, 5-HT7R (Homo sapiens, UniProt P34969); assay: 5-HT7R-induced Tau aggregation in HEK293 Tau-BiFC cells; assay type: cell-based; conditions: HEK293 Tau-BiFC cells transfected with CFP-5-HT7R; maximum intensity projections
# T1 construct: HA (N); expressed in transfected cells; host or cells: N1E-115 (neuroblastoma cells)
# T1 sequence (P34969 whole entry): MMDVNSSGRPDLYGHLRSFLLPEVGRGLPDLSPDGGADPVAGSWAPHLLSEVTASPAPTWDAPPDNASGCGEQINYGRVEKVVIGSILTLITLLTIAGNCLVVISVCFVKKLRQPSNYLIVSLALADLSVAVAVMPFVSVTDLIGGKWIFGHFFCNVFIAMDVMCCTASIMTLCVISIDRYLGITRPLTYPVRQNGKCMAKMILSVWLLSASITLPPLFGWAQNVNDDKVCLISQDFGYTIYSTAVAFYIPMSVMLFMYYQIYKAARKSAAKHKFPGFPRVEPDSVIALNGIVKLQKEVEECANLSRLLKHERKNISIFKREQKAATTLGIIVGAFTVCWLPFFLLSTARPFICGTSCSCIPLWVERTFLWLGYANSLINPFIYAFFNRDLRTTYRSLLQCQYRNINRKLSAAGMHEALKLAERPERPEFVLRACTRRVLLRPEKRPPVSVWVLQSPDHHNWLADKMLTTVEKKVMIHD
# Description: Signals are normalized to DMSO-treated pcDNA-transfected cells. Data are represented as means+SDs (N=3). *** indicates statistical significance of p<0.001, n.s. not statistically different (one-way ANOVA, followed by Turkey's post hoc test). […] Representative maximum intensity projections of HEK293 Tau-BiFC cells transfected with control vector (mCerulean, blue) or 5-HT7R (CFP-5-HT7R, blue) upon the indicated treatment. […] Membranes were probed with total Tau (Abcam) and GAPDH antibody (Millipore). Signals are normalized to DMSO-treated pcDNA-transfected cells. Data are represented as means+SDs (N=3). ** indicates statistical significance of p<0.01, *** p<0.001, n.s. not statistically different (one-way ANOVA, followed by Turkey's post hoc test). […] HEK293 Tau-BiFC cells were transfected with (HA)5-HT7R and treated with the indicated concentration of Amisulpride.
# [1] = system: eGFP-Tau[R406W]-infected primary cortical neurons; assay: Tau tangle formation and apoptosis in eGFP-Tau[R406W]-infected primary cortical neurons; assay type: cell-based, mice; conditions: 50 μM Amisulpride for three days, DIV 10-13
# Description: White boxes and its corresponding magnifications show representative neurons with and without tau tangles. Arrow heads indicate cells that were counted as tangle-positive. B. Quantification of tau tangles. The number of tangle-positive neurons was counted in a confined area in 6 independent experiments and is represented as a fraction of total number of infected neurons. * indicates statistical significance of p<0.05; ** p<0.01 (N=6; total analyzed cells […], one-way ANOVA, followed by Dunnett's post hoc test). C. […] D. Representative images of DIV14 primary cortical WT neurons infected at DIV10 either with AAV constructs encoding eGFP (white) or eGFP-Tau[R406W] (green). […] Fluorescence from cleaved substrate of active caspase3/7 indicating apoptosis is shown. E. Quantification of apoptosis. Apoptotic cells showing caspase3/7 activity were counted in a confined area in 6 independent experiments and are represented as a fraction of total number of infected neurons.
# A. Scheme showing experimental design. […] Neurons were analyzed at DIV 13. […] Arrowheads indicate cells that were counted as tangle-positive. […] Quantification of Tau tangles. The number of tangle-positive neurons was counted in a confined area in at least four independent experiments and is represented as a fraction of the total number of infected neurons. […] GAPDH expression was detected in a soluble fraction. […]
# [2] = system: WT mice injected with AAV-eGFP-Tau[R406W]; assay: Tau hyperphosphorylation and recency test in WT mice after AAV-eGFP-Tau[R406W] injection into the prefrontal cortex; assay type: in vivo; conditions: intraperitoneal, once daily for 16 days
# Protocol: A. Scheme showing experimental design: AAV-eGFP-Tau[R406W] was injected stereotactically into the prefrontal cortex (PFC) of WT mice. After 3 weeks of recovery time, animals were intraperitoneally injected with either Vehicle or Amisulpride once daily for 16 days. B. Staining of prefrontal cortical slices of mice after AAV injection and treatment with phospho-specific Tau antibody T205. Representative overview image and magnification are shown. C. Quantification of the mean intensities of eGFP-Tau and pTau over the whole slice and calculation of the pTau/Tau ratio. Data are shown as mean+SEM (N=5). * indicates statistical significance of p<0.05 (one-tailed unpaired t-test). D. Results of test for temporal order recognition memory (recency test). Quantification of exploration time spent with less recent (L) and recent (R) object and discrimination index. Data are presented as mean+SEM (9≥N≥7). * indicates statistical significance of p<0.05, ** p<0.01; n.s., not statistically different (paired t-test and Wilcoxon signed rank test were applied to analyze exploration time, one-way ANOVA was applied to analyze the discrimination ratio).
structure (smiles),measurement,setting,value
CCN1CCCC1CNC(=O)c1cc(S(=O)(=O)CC)c(N)cc1OC (centres unmarked) [Amisulpride],Tangles of Venus-Tau (VN-Tau) in 5-HT7R-transfected cells,5-HT7R,disappeared
same,5-HT7R-induced Tau tangle formation,[1],reduced
same,apoptosis (caspase3/7 activity),[1],reduced
same,Tau[R406W]-induced memory impairments (recency test),[2],ameliorates
same,"Tau[R406W]-induced Tau hyperphosphorylation (pTau/Tau ratio, T205 staining)",[2]; prefrontal cortical slices,ameliorates
